In patent publication US20260092061A1, “COMPOUNDS FOR TARGETED PROTEIN DEGRADATION” (Amphista Therapeutics Limited, priority 2022, published 2026):

How the values were obtained:
BRD9 [1] = target: T1, BRD9 (Homo sapiens, UniProt Q9H8M2); assay: BRD9 degradation, HiBiT-BRD9 KI HEK293 (LgBiT) cells, NanoGlo Lytic Endpoint assay (Assay Protocol 1); format: cell-based; conditions: BRD9 degradation; for Dmax / Dmax at 1 µM: HEK293; for Dmax at 1 µM: 1 μM compound at 6 h of treatment, read-out: Assay 1 Dmax
T1 sequence (Q9H8M2 1-597): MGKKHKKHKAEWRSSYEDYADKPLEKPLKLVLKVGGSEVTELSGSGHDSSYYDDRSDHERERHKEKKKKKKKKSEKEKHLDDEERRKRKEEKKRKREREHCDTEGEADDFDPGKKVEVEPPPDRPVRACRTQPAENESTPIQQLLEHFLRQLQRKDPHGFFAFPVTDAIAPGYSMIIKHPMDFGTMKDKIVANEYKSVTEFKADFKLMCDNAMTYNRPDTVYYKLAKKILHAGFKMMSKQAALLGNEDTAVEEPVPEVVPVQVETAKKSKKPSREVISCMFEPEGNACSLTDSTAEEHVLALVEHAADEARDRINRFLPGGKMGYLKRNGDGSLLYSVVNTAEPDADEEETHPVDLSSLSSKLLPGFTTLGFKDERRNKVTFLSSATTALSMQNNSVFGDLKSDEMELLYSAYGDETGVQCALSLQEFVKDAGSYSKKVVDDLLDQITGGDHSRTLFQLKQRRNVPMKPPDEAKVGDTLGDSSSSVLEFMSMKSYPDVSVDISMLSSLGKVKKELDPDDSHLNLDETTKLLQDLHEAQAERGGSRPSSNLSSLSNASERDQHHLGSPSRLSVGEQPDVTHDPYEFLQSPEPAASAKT
Method: HiBiT-BRD9 KI HEK293 (LgBiT) Cells (Promega CS3023412) were seeded at 8000 cells per well (38 μL) in sterile white bottom 384 well plates (Invitrogen 164610 or Greiner 781080) and incubated overnight at 37° C. with 5% CO2. The next day, compounds were prepared at 1000× final concentration in DMSO and diluted 1:100 in media (DMEM PAN Biotech P04-03550+10% FBS ATCC 302025). 4 μL compound was added to each well of the cell plate and incubated for 6 h at 37° C. with 5% CO2 BRD9 expression was quantified using the NanoGlo Lytic Endpoint assay (Promega N3050). The lytic buffer was equilibrated to room temperature for 10-15 min before lytic reagent was prepared by adding substrate (1:50) and LgBit protein (1:100) in lytic buffer. 40 μL lytic reagent mix was added to each well of the cel plate and plates were centrifuged briefly at ˜50g. Plates were incubated with shaking (350 RPM) for 12-24 min before reading using the LUM plus module of a BMG Pherastar FSX. Data was analysed using Dotmatics software and % BRD9 remaining was calculated by normalisation to average data from high and low control wells (DMSO treated cels and no cells respectively).

BRD9 [2] = target: T1, BRD9; assay: Degradation of BRD9 (IF), immunofluorescence in MV4-11 cells, 24 hours (Assay Protocol 2); format: cell-based; parameters: A suspension of MV4-11 cells (ATCC CRL-9591) was prepared; host or cells: MV4-11; conditions: BRD9 degradation
Method in brief: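 % BRD9 remaining, scaled between DMSO (high) and 100 nM CFT-8634 (low) control wells, derives from mean Alexa 647 contrast in central nuclei by high-content imaging. MV4-11 cells had 24 h compound exposure at 37° C. before PFA fixation, Triton permeabilisation and anti-BRD9 E4Q3F immunostaining.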

[3] = Assay protocol 1, read-out: DC50
[4] = Assay protocol 1, read-out: Dmax
[5] = Assay protocol 2, read-out: DC50
[6] = MV4-11, Assay protocol 2, read-out: Dmax
[7] = Table 2, Assay Protocol 1, 6 h of treatment, read-out: Assay 1 DC50

| Dmax at 1 µM (BRD9 [1]; Table 2, Assay Protocol 1) | DC50 (BRD9 [1]; [7]) | SMILES | also measured |
| --- | --- | --- | --- |
| 40 to 70% | 1.25 to 10 nM | COc1cc(-c2cn(C)c(=O)c(C)c2C)cc(OC)c1CN1CCN(Cc2cccc3c2CCN(C(=O)/C(C#N)=C/C2CC2)C3C)CC1 (mixture of isomers) [Compound A44] |  |
| 40 to 70% | 10 to 25 nM | COc1cc(-c2cn(C)c(=O)c(C)c2C)cc(OC)c1CN1CCN(Cc2cccc3c2CCN(C(=O)/C(C#N)=C/c2ccn(C)n2)C3C)CC1 (stereo not shown) [Compound A8, (E)-2-(5-((4-(2,6-dimethoxy-4-(1,4,5-trimethyl-6-oxo-1,6-dihydropyridin-3-yl)benzyl)piperazin-1-yl)methyl)-1-methyl-1,2,3,4-tetrahydroisoquinoline-2-carbonyl)-3-(1-methyl-1H-pyrazol-3-yl)acrylonitrile] |  |
| 70 to 75% | 1.25 to 10 nM | COc1cc(-c2cn(C)c(=O)c(C)c2C)cc(OC)c1CN1CCN(Cc2cccc3c2CCN(C(=O)/C(C#N)=C/C2CCC2)C3C)CC1 (mixture of isomers) [Compound A45] |  |
| > 75% | 1.25 to 10 nM | COc1cc(-c2cn(C)c(=O)c(C)c2C)cc(OC)c1CN1CC2CC1CN2Cc1cccc2c1CCN(C(=O)/C(C#N)=C/c1cccc(Br)n1)C2C (mixture of isomers) [Compound A64, (E/Z)-3-(6-bromopyridin-2-yl)-2-(5-((5-(2,6-dimethoxy-4-(1,4,5-trimethyl-6-oxo-1,6-dihydropyridin-3-yl)benzyl)-2,5-diazabicyclo[2.2.1]heptan-2-yl)methyl)-1-methyl-1,2,3,4-tetrahydroisoquinoline-2-carbonyl)acrylonitrile] |  |
| 40 to 70% | 1.25 to 10 nM | COc1cc(-c2cn(C)c(=O)c(C)c2C)cc(OC)c1CN1CCN(Cc2cccc3c2CCN(C(=O)/C(C#N)=C/c2ccc(C(F)(F)F)cn2)C3C)CC1 (mixture of isomers) [Compound A54, (E/Z)-2-(5-((4-(2,6-dimethoxy-4-(1,4,5-trimethyl-6-oxo-1,6-dihydropyridin-3-yl)benzyl)piperazin-1-yl)methyl)-1-methyl-1,2,3,4-tetrahydroisoquinoline-2-carbonyl)-3-(5-(trifluoromethyl)pyridin-2-yl)acrylonitrile] |  |
| 70 to 75% | < 1.25 nM | COc1cc(-c2cn(C)c(=O)c(C)c2C)cc(OC)c1CN1CCN(Cc2cccc3c2CCN(C(=O)/C(C#N)=C\c2nc(C)cs2)C3C)CC1 (mixture of isomers) [Compound A21] |  |

The remaining lines, values behind:

| SMILES | Dmax at 1 µM (BRD9 [1]; Table 2, Assay Protocol 1) | DC50 (BRD9 [1]; [7]) | also measured |
| --- | --- | --- | --- |
| COc1cc(-c2cn(C)c(=O)c(C)c2C)cc(OC)c1CN1CCN(C(=O)C2CCCN(C(=O)/C(C#N)=C/C(C)(C)C)C2)CC1 (stereo not shown) [Compound B206] |  |  | Dmax (BRD9 [1]; Table 4, determined according to Assay Protocol 1, read-out: Dmax^1): > 70%; DC50 (BRD9 [1]; Table 4, determined according to Assay Protocol 1, read-out: DC50^1): 25 to 200 nM; Dmax (BRD9 [2]; MV4-11, Table 4, determined according to Assay Protocol 2, read-out: Dmax^2): 50 to 70%; DC50 (BRD9 [2]; Table 4, determined according to Assay Protocol 2, read-out: DC50^2): 25 to 200 nM |
| COc1cc(-c2cn(C)c(=O)c(C)c2C)cc(OC)c1CN1CCN(Cc2cccc3c2CCN(C(=O)/C(C#N)=C/C2(C)CC2)C3C)CC1 (mixture of isomers) [Compound C27, (E/Z)-2-(5-((4-(2,6-dimethoxy-4-(1,4,5-trimethyl-6-oxo-1,6-dihydropyridin-3-yl)benzyl)piperazin-1-yl)methyl)-1-methyl-1,2,3,4-tetrahydroisoquinoline-2-carbonyl)-3-(1-methylcyclopropyl)acrylonitrile] |  |  | DC50 (BRD9 [1]; [3]): > 1000 nM; Dmax (BRD9 [1]; [4]): 40 to 70%; DC50 (BRD9 [2]; [5]): > 1000 nM; Dmax (BRD9 [2]; [6]): 40 to 70% |
| COc1cc(-c2cn(C)c(=O)c(C)c2C)cc(OC)c1CN1CCN(Cc2cccc3c2CCN(C(=O)/C(C#N)=C/c2cccc(C)n2)C3C)CC1 (mixture of isomers) [Compound B24, (E/Z)-2-(5-((4-(2,6-dimethoxy-4-(1,4,5-trimethyl-6-oxo-1,6-dihydropyridin-3-yl)benzyl)piperazin-1-yl)methyl)-1-methyl-1,2,3,4-tetrahydroisoquinoline-2-carbonyl)-3-(6-methylpyridin-2-yl)acrylonitrile] |  |  | DC50 (BRD9 [1]; [3]): < 1.25 nM; Dmax (BRD9 [1]; [4]): 40 to 70%; DC50 (BRD9 [2]; [5]): 1.25 to 10 nM; Dmax (BRD9 [2]; [6]): 40 to 70% |
| COc1cc(-c2cn(C)c(=O)c3cnccc23)cc(OC)c1CN1CCN(Cc2cccc3c2CCN(C(=O)/C(C#N)=C\C(C)C)C3C)CC1 (mixture of isomers) [Compound A19, (E/Z)-2-(5-((4-(2,6-dimethoxy-4-(2-methyl-1-oxo-1,2-dihydro-2,7-naphthyridin-4-yl)benzyl)piperazin-1-yl)methyl)-1-methyl-1,2,3,4-tetrahydroisoquinoline-2-carbonyl)-4-methylpent-2-enenitrile] | 40 to 70% | 1.25 to 10 nM |  |
| COc1cc(-c2cn(C)c(=O)c3cnccc23)cc(OC)c1CN(C)Cc1ccc2c(c1)CCN(C(=O)/C(C#N)=C/C(C)(C)C)C2C (mixture of isomers) [Compound A46] | 40 to 70% | 1.25 to 10 nM |  |
| COc1cc(-c2cn(C)c(=O)c3cnccc23)cc(OC)c1CN1CCN(Cc2ccc(C3CCCN3C(=O)/C(C#N)=C/c3nccs3)cc2)CC1 (mixture of isomers) [Compound A38, (E/Z)-2-(2-(4-((4-(2,6-dimethoxy-4-(2-methyl-1-oxo-1,2-dihydro-2,7-naphthyridin-4-yl)benzyl)piperazin-1-yl)methyl)phenyl)pyrrolidine-1-carbonyl)-3-(thiazol-2-yl)acrylonitrile] | 40 to 70% | 1.25 to 10 nM |  |
| COc1cc(-c2cn(C)c(=O)c3cnccc23)cc(OC)c1CN1CCN(Cc2cccc3c2CCN(C(=O)/C(C#N)=C\c2ccns2)C3C)CC1 (mixture of isomers) [Compound A23, (E/Z)-2-(5-((4-(2,6-dimethoxy-4-(2-methyl-1-oxo-1,2-dihydro-2,7-naphthyridin-4-yl)benzyl)piperazin-1-yl)methyl)-1-methyl-1,2,3,4-tetrahydroisoquinoline-2-carbonyl)-3-(isothiazol-5-yl)acrylonitrile] | 40 to 70% | 1.25 to 10 nM |  |
| COc1cc(-c2cn(C)c(=O)c3cnccc23)cc(OC)c1CN(C)Cc1ccc2c(c1)C(C)N(C(=O)/C(C#N)=C/c1cccc(Br)n1)CC2 (mixture of isomers) [Compound A59] | 70 to 75% | 1.25 to 10 nM |  |
| COc1cc(-c2cn(C)c(=O)c3cnccc23)cc(OC)c1CN1CCN(Cc2cccc3c2CCN(C(=O)/C(C#N)=C\C2CCC2)C3C)CC1 (mixture of isomers) [Compound A24, (E/Z)-3-cyclobutyl-2-(5-((4-(2,6-dimethoxy-4-(2-methyl-1-oxo-1,2-dihydro-2,7-naphthyridin-4-yl)benzyl)piperazin-1-yl)methyl)-1-methyl-1,2,3,4-tetrahydroisoquinoline-2-carbonyl)acrylonitrile] | 40 to 70% | < 1.25 nM |  |
| COc1cc(-c2cn(C)c(=O)c3cnccc23)cc(OC)c1CN(C)Cc1ccc2c(c1)C(C)N(C(=O)/C(C#N)=C/C(C)(C)C)CC2 (mixture of isomers) [Compound A47, (E/Z)-2-[7-[[2,6-dimethoxy-4-(2-methyl-1-oxo-2,7-naphthyridin-4-yl)phenylmethyl-methyl-amino]methyl]-1-methyl-3,4-dihydro-1H-isoquinoline-2-carbonyl]-4,4-dimethyl-pent-2-enenitrile] | 40 to 70% | 10 to 25 nM |  |
| COc1cc(-c2cn(C)c(=O)c(C)c2C)cc(OC)c1CN1CCN(C(=O)CCc2ccc3c(c2)CCN(C(=O)/C(C#N)=C/c2nccs2)C3C)CC1 (mixture of isomers) [Compound A56, (E/Z)-2-(6-(3-(4-(2,6-dimethoxy-4-(1,4,5-trimethyl-6-oxo-1,6-dihydropyridin-3-yl)benzyl)piperazin-1-yl)-3-oxopropyl)-1-methyl-1,2,3,4-tetrahydroisoquinoline-2-carbonyl)-3-(thiazol-2-yl)acrylonitrile] | 40 to 70% | 10 to 25 nM |  |
